Data from publication PMC6412362 (2019).

What was measured:
[1] = test system: (G4T4G4)2 (DNA, G4) GGGGTTTTGGGG; assay: UV-Vis titration; settings: 100 mM KCl, 20 mM potassium phosphate, PBS pH 6.8, 25 °C
[2] = test system: AG3(T2AG3)3 (DNA, G4) AGGGTTAGGGTTAGGGTTAGGG; assay: UV-Vis titration; settings: 100 mM KCl, 20 mM potassium phosphate; PBS 0.1 mM EDTA pH 6.8, 25 °C; 2 μM ligand; apparent
[3] = test system: 5GC (DNA, duplex) GCGCGCGCGC; assay: UV-Vis titration; settings: 100 mM KCl, 20 mM potassium phosphate; PBS 0.1 mM EDTA pH 6.8, 25 °C; 2 μM ligand; apparent
[4] = test system: AG3(T2AG3)3 (DNA, G4) AGGGTTAGGGTTAGGGTTAGGG; assay: CD melting at 290 nm; settings: 100 mM KCl, 20 mM potassium phosphate; PBS pH 6.8; 6 μM as printed for solutions; derived from two Tm
[5] = test system: (T2G5T)4 (DNA, G4) TTGGGGGT; assay: G4-FID fluorescent intercalator displacement; settings: 100 mM KCl, 20 mM potassium phosphate; PBS pH 6.8, 25 °C; thiazole orange displaced
[6] = test system: AG3(T2AG3)3 (DNA, G4) AGGGTTAGGGTTAGGGTTAGGG; assay: G4-FID fluorescent intercalator displacement; settings: 100 mM KCl, 20 mM potassium phosphate; PBS pH 6.8, 25 °C; thiazole orange displaced
[7] = test system: 5GC (DNA, duplex) GCGCGCGCGC; assay: G4-FID fluorescent intercalator displacement; settings: 100 mM KCl, 20 mM potassium phosphate; PBS pH 6.8, 25 °C; thiazole orange displaced
[8] = test system: AG3(T2AG3)3 (DNA, G4) AGGGTTAGGGTTAGGGTTAGGG; assay: fluorimetric titration, ligand fluorescence, Hill fit; settings: 100 mM KCl, 20 mM potassium phosphate; 25 °C; 1 μM ligand, DNA 0-3 μM; apparent; Hill n ≈ 2

Row | SMILES | binding ([1]; 2 μM ligand, red shift 15 nm) | KD [2] | KD [3] | ΔTm [4] | DC50 [5] | DC50 [6] | DC50 [7] | KD [8] | binding ([1]; red shift 13 nm) | binding ([1]; 2 μM ligand, red shift 17 nm)
1 | COc1cc[n+](-c2cc3c(cc2-[n+]2ccc(OC)cc2)-c2nc-3nc3nc(nc4[n-]c(nc5[n-]c(n2)c2cc(-[n+]6ccc(OC)cc6)c(-[n+]6ccc(OC)cc6)cc52)c2cc(-[n+]5ccc(OC)cc5)c(-[n+]5ccc(OC)cc5)cc42)-c2cc(-[n+]4ccc(OC)cc4)c(-[n+]4ccc(OC)cc4)cc2-3)cc1.[Zn+2] | yes | (7.61 ± 0.11) × 10^−8 M | (4.74 ± 0.13) × 10^−4 M | 11.8 °C | 1.08 ± 0.08 µM | 1.04 ± 0.28 µM | 1.30 ± 0.21 µM | 0.074 µM |  | 
2 | C[n+]1ccc(-c2c3nc(c(-c4cc[n+](C)cc4)c4ccc([nH]4)c(-c4cc[n+](C)cc4)c4nc(c(-c5cc[n+](C)cc5)c5ccc2[nH]5)C=C4)C=C3)cc1 |  |  |  | 7.0 °C | 1.17 ± 0.20 µM | 1.07 ± 0.09 µM | 0.94 ± 0.20 µM | 0.29 µM | yes | 
3 | C[n+]1ccc(Sc2cc3c(cc2Sc2cc[n+](C)cc2)-c2nc-3nc3nc(nc4[n-]c(nc5[n-]c(n2)c2cc(Sc6cc[n+](C)cc6)c(Sc6cc[n+](C)cc6)cc52)c2cc(Sc5cc[n+](C)cc5)c(Sc5cc[n+](C)cc5)cc42)-c2cc(Sc4cc[n+](C)cc4)c(Sc4cc[n+](C)cc4)cc2-3)cc1.[Zn+2] |  | (9.58 ± 0.09) × 10^−6 M | (1.28 ± 0.17) × 10^−5 M |  | 1.84 ± 0.03 µM | 1.95 ± 0.26 µM | 1.93 ± 0.48 µM | 0.54 µM |  | yes
